From patent publication US20110112100A1, “Hepatitis C Virus Inhibitors” (priority 2009, published 2011) come the findings set out here.

Where a name gives a salt, the structure may show the parent alone. Read-outs that look alike come from different tables or passages of the source.

By IC50 is commonly meant the concentration that gives 50% inhibition.

The subject of assay [1] is 1a-H77 replicon cells. The experiment in a line: HCV 1a replicon inhibitory activity (Renilla luciferase). The note with it: read-out: IC50 value (95% Confidence Intervals) pM Replicon 1A assay. The format is cell-based, hepatitis C virus. Here is the method: (§1) Test compounds were solubilised to 4 mM in 100% DMSO. Dilutions were made to the desired starting concentration in 100% DMSO and then 1 in 3 dilutions made, again in 100% DMSO. 0.5 μl of each sample was added to 384-well assay plates. White Lumitrac (Greiner) plates were used for the 1a and 1b replicon assays and black, clear bottomed (Greiner) plates were used for the WST-1 cytotoxity assay.
1a-H77 replicon cells (licensed from Apath LLC) were resuspended to a concentration of 1.4×10^5 cells/ml by addition of pre-warmed assay medium (Dulbecco's Modified Eagle's Medium (DMEM)+10% fetal calf serum (FCS)). 50 μl of this suspension was added to each well of a 384-well assay plate (Lumitrac, Greiner), already containing 0.5 μl of test compound.
All plates were covered with gas permeable seals and incubated at 37° C., 5% CO2 for 48 hours. After 48 hours, the assay plate was removed from the incubator and left to cool to room temperature for 15 to 30 mins. Medium was removed from the wells and 5 μl 1× lysis buffer (from Promega's Renilla Luciferase assay kit, E2820) was added to each well. The plate was incubated at room temperature for 15 mins then 15 μl 1×Assay Substrate (from the same kit) was added to each well. Luminescence was read immediately using an EnVision (Perkin Elmer) plate reader. The half maximal effective concentration (1050) values were calculated by constructing log concentration-response curves for each compound.
In general terms: In antiviral work, replicon cells carry a viral genome segment that copies itself.

For assay [2], the system named is 1b (con1) replicon cells. The assay is described as follows: HCV 1b replicon inhibitory activity (luciferase, Britelite Plus). The format is cell-based, hepatitis C virus. The note with it: read-out: IC50 value (95% Confidence Intervals) pM Replicon 1B assay. The protocol:
as §1
1b (con1) replicon cells (pFK1389lucubineo/NS3-3′/ET/9B, licensed from Ralf Bartenschlager, University of Heidelberg) were resuspended to a concentration of 1.4×10^5 cells/ml by addition of pre-warmed medium (DMEM+10% FCS). 50 μl of this suspension was added to each well of a 384-well assay plate (Lumitrac, Greiner) already containing 0.5 μl of test compound.
All plates were covered with gas permeable seals and incubated at 37° C., 5% CO2 for 48 hours. After 48 hours, the plate was removed from the incubator and left to cool to room temperature for 15-30 mins. 35 ul of reconstituted Lyophilised Britelite Plus Substrate (PerkinElmer, 6016767) to medium was added to each well. Luminescence was read after 1 min but before 15 mins on an EnVision (Perkin Elmer) plate reader. The half maximal effective concentration (1050) values were calculated by constructing log concentration-response curves for each compound.

Where [3] appears, read: geometric mean, 95% confidence intervals in parentheses, 48 hours, medium with 10% FCS.
Where [4] appears, read: Hepatitis C virus, geometric mean, 95% confidence intervals in parentheses, 48 hours, medium with 10% FCS.

Consider `COC(=O)N[C@@H](COCc1ccccc1)C(=O)N1CCC[C@H]1c1ncc(-c2ccc3nc(-c4ccc(-c5c[nH]c([C@@H]6CCCN6C(=O)[C@@H](NC(=O)OC)C(C)C)n5)cc4)cnc3c2)[nH]1` [Example 48, Methyl {(2S)-1-[(2S)-2-{4-[4-(6-{2-[(2S)-1-{(2S)-3-(benzyloxy)-2-[(methoxycarbonyl)amino]propanoyl}pyrro-lidin-2-yl]-1H-imidazol-5-yl}quinoxalin-2-yl)phenyl]-1H-imidazol-2-yl}pyrrolidin-1-yl]-3-methyl-1-oxobutan-2-yl}carbamate carbamate trifluoroacetic acid salt], for which the values for the IC50 in assay [1] (setting [3]) and in assay [2] (setting [3]) were 27.8 pM and 6.84 pM, respectively.

For the compound `CCOc1nc(-c2ccc(-c3cnc([C@@H]4CCCN4C(=O)[C@@H](NC(=O)OC)C(C)C)[nH]3)cc2)nc2ccc(-c3cnc([C@@H]4CCCN4C(=O)[C@@H](NC(=O)OC)C(C)C)[nH]3)cc12` [Example 16, Methyl {(2S)-1-[(2S)-2-{5-[4-(4-ethoxy-6-{2-[(2S)-1-{(2S)-2-[(methoxycarbonyl)amino]-3-methylbutanoyl}pyrrolidin-2-yl]-1H-imidazol-5-yl}quinazolin-2-yl)phenyl]-1H-imidazol-2-yl}pyrrolidin-1-yl]-3-methyl-1-oxobutan-2-yl}carbamate], the 50% inhibitory concentration (IC50) is 35.3 pM in assay [1] (setting [4]) and 5.28 pM in assay [2] (setting [4]).

`COC(=O)N[C@H](C(=O)N1CCC[C@H]1c1nc(-c2ccc(-c3cnc4cc(-c5cnc([C@@H]6CCCN6C(=O)[C@@H](Cc6ccccn6)NC(=O)OC)[nH]5)ccc4n3)cc2)c[nH]1)C(C)C` [Example 83, Methyl {(2S)-1-[(2S)-2-(4-{4-[6-(2-{(2S)-1-[(2R)-2-[(methoxycarbonyl)amino]-3-(pyridin-2-yl)propanoyl]pyrrolidin-2-yl}-1H-imidazol-5-yl)quinoxalin-2-yl]phenyl}-1H-imidazol-2-yl)pyrrolidin-1-yl]-3-methyl-1-oxobutan-2-yl}carbamate trifluoroacetic acid salt]: the IC50 in assay [1] (Hepatitis C virus, 48 h) amounted to 1030 pM; in assay [2] (Hepatitis C virus, 48 h), 53.4 pM.

In the case of `COC(=O)N[C@H](C(=O)N1CCC[C@H]1c1nc(-c2ccc(-c3cnc4cc(-c5cnc([C@@H]6CCCN6C(=O)CNC(=O)CN6C(=O)CCc7ccccc76)[nH]5)ccc4n3)cc2)c[nH]1)C(C)C` [Example 45, Methyl {(2S)-3-methyl-1-oxo-1-[(2S)-2-{4-[4-(6-[2-[(2S)-1-{N-[(2-oxo-3,4-dihydroquinolin-1(2H)-yl)acetyl]glycyl}pyrrolidin-2-yl]-1H-imidazol-5-yl}quinoxalin-2-yl)phenyl]-1H-imidazol-2-yl}pyrrolidin-1-yl]butan-2-yl}carbamate trifluoroacetic acid salt], the IC50 amounted to 20000 pM in assay [1] (Hepatitis C virus, 48 h) and 507 pM in assay [2] (Hepatitis C virus, 48 h).

On to `COC(=O)N[C@H](C(=O)N1CCC[C@H]1c1nc(-c2ccc(-c3nc4ccc(-c5c[nH]c([C@@H]6CCCN6C(=O)[C@@H](NC(=O)OC)C(C)C)n5)cc4nc3OC)cc2)c[nH]1)C(C)C` [Example 17, Methyl {(2S)-1-[(2S)-2-{4-[4-(3-methoxy-6-{2-[(2S)-1-{(2S)-2-[(methoxycarbonyl)amino]-3-methylbutanoyl}pyrrolidin-2-yl]-1H-imidazol-4-yl}quinoxalin-2-yl)phenyl]-1H-imidazol-2-yl}pyrrolidin-1-yl]-3-methyl-1-oxobutan-2-yl}carbamate], for which the IC50 is 560 pM in assay [1] (setting [4]) and 22.3 pM in assay [2] (setting [4]).

Regarding `COC(=O)N[C@H](C(=O)N1CCC[C@H]1c1ncc(-c2cnc(-c3ccc4cc(-c5cnc([C@@H]6CCCN6C(=O)[C@@H](NC(=O)OC)C(C)C)[nH]5)ccc4c3)nc2)[nH]1)C(C)C` [Example 7, Methyl {(2S)-1-[(2S)-2-{5-[6-(5-{2-[(2S)-1-{(2S)-2-[(methoxycarbonyl)amino]-3-methyl-butanoyl}pyrrolidin-2-yl]-1H-imidazol-5-yl}pyrimidin-2-yl)naphthalen-2-yl]1H-imidazol-2-yl}pyrrolidin-1-yl]-3-methyl-1-oxobutan-2-yl}carbamate], the IC50 in assay [1] (setting [4]) stood at 68.4 pM; in assay [2] (setting [4]), 21.4 pM.

Consider `COC(=O)N[C@H](C(=O)N1CCC[C@H]1c1ncc(-c2ccc(-c3ccc4nc(-c5cnc([C@@H]6CCCN6C(=O)[C@@H](NC(=O)OC)C(C)C)[nH]5)cnc4c3)cc2)[nH]1)C(C)C` [Example 5, Methyl {(2S)-1-[(2S)-2-{5-[4-(2-{2-[(2S)-1-{(2S)-2-[(methoxycarbonyl)amino]-3-methyl-butanoyl}pyrrolidin-2-yl]-1H-imidazol-5-yl}quinoxalin-6-yl)phenyl]-1H-imidazol-2-yl}pyrrolidin-1-yl]-3-methyl-1-oxobutan-2-yl}carbamate], for which the IC50 in assay [1] (setting [4]) came to 387 pM; in assay [2] (setting [4]) it was 8.12 pM.

With `COC(=O)N[C@H](C(=O)N1CCC[C@H]1c1nc(-c2ccc(-c3cnc4cc(-c5cnc([C@@H]6CCCN6C(=O)[C@@H](COC(C)(C)C)NC(=O)OC)[nH]5)ccc4n3)cc2)c[nH]1)C(C)C` [Example 76, Methyl {(2S)-1-[(2S)-2-{4-[4-(6-{2-[(2S)-1-{(2R)-3-tert-butoxy-2-[(methoxycarbonyl)amino]propanoyl}pyrrolidin-2-yl]-1H-imidazol-5-yl]quinoxalin-2-yl)phenyl]-1H-imidazol-2-yl}pyrrolidin-1-yl]-3-methyl-1-oxobutan-2-yl}carbamate trifluoroacetic acid salt], the half-inhibitory concentration (IC50) in assay [1] (Hepatitis C virus, 48 h) is 157 pM; in assay [2] (Hepatitis C virus, 48 h), 58.8 pM.

With `COC(=O)N[C@H](C(=O)N1CCC[C@H]1c1nc(-c2ccc(-c3cnc4cc(-c5cnc([C@@H]6CCCN6C(=O)[C@H](CCC(N)=O)NC(C)=O)[nH]5)ccc4n3)cc2)c[nH]1)C(C)C` [Example 34, Methyl {(2S)-1-[(2S)-2-{4-[4-(6-[2-[(2S)-1-(N^2-acetyl-L-glutaminyl)pyrrolidin-2-yl]-1H-imidazol-5-yl}quinoxalin-2-yl)phenyl]-1H-imidazol-2-yl}pyrrolidin-1-yl]-3-methyl-1-oxobutan-2-yl}carbamate trifluoroacetic acid salt], the IC50 in assay [1] (Hepatitis C virus, 48 h) amounted to 5930 pM; in assay [2] (Hepatitis C virus, 48 h), 1430 pM.

Consider `CCC[C@@H](NC(=O)OC)C(=O)N1CCC[C@H]1c1ncc(-c2ccc3nc(-c4ccc(-c5c[nH]c([C@@H]6CCCN6C(=O)[C@@H](NC(=O)OC)C(C)C)n5)cc4)cnc3c2)[nH]1` [Example 77, Methyl {(2R)-1-[(2S)-2-{5-[2-(4-{2-[(2S)-1-{(2S)-2-[(methoxycarbonyl)amino]-3-methylbutanoyl}pyrrolidin-2-yl]-1H-imidazol-4-yl}phenyl)quinoxalin-6-yl]-1H-imidazol-2-yl}pyrrolidin-1-yl]-1-oxopentan-2-yl}carbamate trifluoroacetic acid salt], for which the IC50 in assay [1] (Hepatitis C virus, 48 h) turned out to be 186 pM; in assay [2] (Hepatitis C virus, 48 h) it was 31.4 pM.

In the case of `COC(=O)N[C@H](C(=O)N1CCC[C@H]1c1ncc(-c2ccc(-c3ccc4cc(-c5cnc([C@@H]6CCCN6C(=O)[C@@H](NC(=O)OC)C(C)C)[nH]5)ncc4c3)cc2)[nH]1)C(C)C` [Example 8, Methyl {(2S)-1-[(2S)-2-{5-[4-(3-{2-[(2S)-1-{(2S)-2-[(methoxycarbonyl)amino]-3-methyl-butanoyl}pyrrolidin-2-yl]-1H-imidazol-5-yl}isoquinolin-7-yl)phenyl]-1H-imidazol-2-yl}pyrrolidin-1-yl]-3-methyl-1-oxobutan-2-yl}carbamate], the 50% inhibitory concentration (IC50) in assay [1] (setting [4]) came to 91.2 pM; in assay [2] (setting [4]), 20.5 pM.

Turning to `COC(=O)N[C@H](C(=O)N1CCC[C@H]1c1ncc(-c2ccc(-c3cnc4cc(-c5cnc([C@@H]6CCCN6C(=O)[C@@H](NC(=O)OC)C(C)C)[nH]5)ccc4n3)nc2)[nH]1)C(C)C` [Example 9, Methyl {(2S)-1-[(2S)-2-{5-[6-(6-{2-[(2S)-1-{(2S)-2-[(methoxycarbonyl)amino]-3-methyl-butanoyl}pyrrolidin-2-yl]-1H-imidazol-5-yl}quinoxalin-2-yl)pyridin-3-yl]-1H-imidazol-2-yl}pyrrolidin-1-yl]-3-methyl-1-oxobutan-2-yl}carbamate], the IC50 stood at 42.9 pM in assay [1] (setting [4]) and 12.7 pM in assay [2] (setting [4]).
